Data set [1] deals with HepG2. Description: Cytotoxicity against human HepG2 cells assessed as reduction in cell viability after 24 hrs by MTT assay. The class given is functional, cell-based. The conditions noted are these: for IC50: HepG2, 24 h.
Another data set relates to HeLa. Kind of data set: Cytotoxicity against human HeLa cells assessed as reduction in cell viability after 24 hrs by MTT assay. It is filed as functional, cell-based. Background: Tetrazolium assays rely on reduction of a dye to a coloured formazan, in cell work by metabolically active cells.
Another data set relates to K562. Kind of data set: Cytotoxicity against human K562 cells assessed as reduction in cell viability after 24 hrs by MTT assay. It is filed as functional, cell-based. As to conditions: for IC50: K562, 24 h.
The test system of another data set is THP-1. Kind of data set: Cytotoxicity against human THP1 cells assessed as reduction in cell viability after 24 hrs by MTT assay. It is filed as functional, cell-based. As to conditions: for IC50: THP-1, 24 h.
The subject of another data set is L02. Description: Cytotoxicity against human LO2 cells assessed as reduction in cell viability after 24 hrs by MTT assay. The class given is cell-based. As to conditions: L02, 24 h.
Data set [2] deals with HepG2. Kind of data set: Upregulation of Bax protein expression in human HepG2 cells at 50 uM after 3 hrs by western blot analysis. The class given is functional, cell-based.
Data set [3] deals with HepG2. Description: Downregulation of Bcl2 protein expression in human HepG2 cells at 50 uM after 3 hrs by western blot analysis. It is filed as functional, cell-based.
In data set [4] the test system is HepG2. Description: Induction of apoptosis in human HepG2 cells after 24 hrs by Annexin V-FITC/propidium iodide staining based flow cytometry. The class given is functional, cell-based. (A flow cytometer gives signals particle by particle.)
Data set [5] is described as follows: Drug uptake in human HepG2 cell cytoplasm at 10 mg/ml after 1 to 3 hrs by Hoechst 33342 staining based confocal laser scanning microscopic method. The class given is ADME, subcellular.
Data set [6] in a line: Drug uptake in human HepG2 cell nucleus at 10 mg/ml after 1 to 3 hrs by Hoechst 33342 staining based confocal laser scanning microscopic method. The class given is ADME, subcellular.
Data set [7] can be described thus: Drug uptake in human HepG2 cell cytoplasm at 10 mg/ml after 4 hrs by Hoechst 33342 staining based confocal laser scanning microscopic method. It is filed as ADME, subcellular. The conditions noted are these: hepg2, 4 h.
The nature of data set [8]: Drug uptake in human HepG2 cell nucleus at 10 mg/ml after 4 hrs by Hoechst 33342 staining based confocal laser scanning microscopic method. The conditions noted are these: hepg2, 4 h. It is filed as ADME, subcellular.
For data set [9], the system named is HepG2. Description: Cytotoxicity against human HepG2 cells assessed as cell morphology disruption at 10 mg/ml after 4 hrs by Hoechst 33342 staining based confocal laser scanning microscopic method. The class given is functional.
For data set [10], the system named is HepG2. Kind of data set: Antitumor activity against human HepG2 cells xenografted in Balb/c nude mouse assessed as tumor growth inhibition at 10 mg/kg/day, ip daily for 20 days measured on day 21. It is filed as functional, organism-based. In general terms: A xenograft is tissue or cells of one species grown in another, often human tumour cells in immunodeficient mice.

In a further data set the test system is Mus musculus. Kind of data set: Toxicity in Balb/c nude mouse xenografted with human HepG2 cells assessed as change in body weight at 10 mg/kg/day, ip daily for 20 days measured every 2 days during compound dosing. It is filed as organism-based. The conditions noted are these: in vivo.
In data set [11] the test system is HepG2. Description: Antitumor activity against human HepG2 cells xenografted in Balb/c nude mouse assessed as tumor growth inhibition at 1 mg/kg/2 days, ip for 20 days measured on day 21. The class given is functional, organism-based.

The source made the active and inactive calls. The calls are words filed in the database; no cut-off is given here.

This is an account of results in ChEMBL document CHEMBL4145528, “Novel dissymmetric 3,5-bis(arylidene)-4-piperidones as potential antitumor agents with biological evaluation in vitro and in vivo” (Eur J Med Chem, 2018).

In general, IC50 refers to the concentration at which inhibition is half-maximal.

Regarding `CN1C/C(=C\c2ccc(C(F)(F)F)cc2)C(=O)/C(=C/c2cccc([N+](=O)[O-])c2)C1`, the Activity result in the data set on HepG2 [1], with HeLa, in the data set with K562 and in the data set on THP-1 was “Dose-dependent effect” throughout. Moreover, the IC50 in the data set with HepG2 [1] was 1040 nM; with HeLa, 3.56 µM; in the data set with K562, 4.78 µM; in the data set on THP-1, 970 nM; in the data set with L02, 12.4 µM. Also, the outcome in the data set on HepG2 [2] and with HepG2 [3] was Active.

In the case of `COc1cc(/C=C2\CN(C)C/C(=C\c3ccccc3F)C2=O)cc(OC)c1OC`, the Activity result is “Dose-dependent effect” in the data set with HepG2 [1]; “Dose-dependent effect” with HeLa; “Dose-dependent effect” in the data set with K562; “Dose-dependent effect” in the data set with THP-1; “Dose-dependent effect” in the data set on HepG2 [4]; “Non-Toxic” in the data set on Mus musculus. Besides, the IC50 turned out to be 670 nM with HepG2 [1]; 3.22 µM with HeLa; 4.34 µM with K562; 640 nM with THP-1; 12.1 µM in the data set on L02. For the same compound, the outcome in the data set on HepG2 [2], in the data set with HepG2 [3] and with HepG2 [9] was Active. The Drug uptake entry in [5] is listed as “Active”; in [6] it was “Not Active”; in data set [7], “Not Active”; in data set [8], “Active”. Also, in the data set on HepG2 [10], the TGI result was “Active”.

Turning to `COc1cc(/C=C2\CN(C)C/C(=C\c3ccc(C#N)cc3)C2=O)cc(OC)c1OC`, the Activity entry in the data set with HepG2 [1], with HeLa, in the data set with K562 and in the data set on THP-1 was “Dose-dependent effect” each time. Also, the IC50 in the data set with HepG2 [1] stood at 1140 nM; in the data set on HeLa, 3.42 µM; with K562 it was 4.29 µM; in the data set with THP-1, 820 nM; with L02, 18.6 µM. Moreover, the outcome with HepG2 [2] and with HepG2 [3] was Active.

For the compound `COc1cccc2c1C(=O)c1c(O)c3c(c(O)c1C2=O)C[C@@](O)(C(=O)CO)C[C@@H]3O[C@H]1C[C@H](N)[C@H](O)[C@H](C)O1` [DOXORUBICIN], the IC50 was 680 nM in the data set on HepG2 [1], 2.23 µM with HeLa, 670 nM in the data set on THP-1 and 6.93 µM in the data set on L02. Further, the TGI entry in the data set on HepG2 [11] was “Active”.
